The source of these data is patent US20260124222A1, “ISOTHIAZOLYLCARBOXAMIDE COMPOUNDS AND THEIR USE IN THERAPY” (HOTSPOT THERAPEUTICS, INC., priority 2022, published 2026).

The target in the assay is T1, Avi-tagged FL MALT-1 (Homo sapiens, UniProt Q9UDY8).
T1 construct: Avi-tagged FL MALT-1 (Pharmaron, stored at −70° C.); Avi-tag; purchased Pharmaron
T1 sequence (Q9UDY8 1-824): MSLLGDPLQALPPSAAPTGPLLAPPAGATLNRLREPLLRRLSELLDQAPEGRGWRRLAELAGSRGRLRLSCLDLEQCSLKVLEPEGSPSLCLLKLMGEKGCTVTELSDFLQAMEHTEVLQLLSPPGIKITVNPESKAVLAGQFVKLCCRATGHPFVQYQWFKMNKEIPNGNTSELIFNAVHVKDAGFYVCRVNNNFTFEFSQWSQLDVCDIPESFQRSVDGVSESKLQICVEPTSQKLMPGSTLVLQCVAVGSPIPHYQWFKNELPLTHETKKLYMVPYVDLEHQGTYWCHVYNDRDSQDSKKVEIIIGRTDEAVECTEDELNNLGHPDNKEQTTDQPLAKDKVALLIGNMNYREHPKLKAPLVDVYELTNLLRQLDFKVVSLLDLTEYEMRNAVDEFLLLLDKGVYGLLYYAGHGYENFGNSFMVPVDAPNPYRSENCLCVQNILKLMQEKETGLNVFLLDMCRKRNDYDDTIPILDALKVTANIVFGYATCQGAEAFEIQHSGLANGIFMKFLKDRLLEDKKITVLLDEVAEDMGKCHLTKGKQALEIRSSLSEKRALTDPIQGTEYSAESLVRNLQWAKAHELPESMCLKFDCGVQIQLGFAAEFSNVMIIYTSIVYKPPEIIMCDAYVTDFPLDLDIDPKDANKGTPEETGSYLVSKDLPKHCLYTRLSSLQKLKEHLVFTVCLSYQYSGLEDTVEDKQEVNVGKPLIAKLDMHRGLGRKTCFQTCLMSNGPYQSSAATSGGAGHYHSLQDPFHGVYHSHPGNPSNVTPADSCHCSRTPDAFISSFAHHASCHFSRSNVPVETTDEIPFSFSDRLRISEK
In words: MALT-1 Fluorogenic Peptide Cleavage Assay (MALT1 inhibition assay). It is filed as biochemical. As to conditions: Ac-LRSR-AMC peptide substrate; 30 min pre-incubation, 90 min reaction at room temperature; fluorescence. The essentials: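 Full-length Avi-tagged enzyme preincubated 30 min at room temperature with compound (2% DMSO final) in HEPES pH 6.89 buffer with sodium citrate, TCEP, EDTA and CHAPS. Ac-LRSR-AMC substrate added at Km or 10×Km (working stocks 50 or […] μM); fluorescence (ex 342/em 441 nm) after 90 min; IC50 from sigmoidal fit.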
In turn, `O=C(Nc1cnc(C(=O)N2CC(O)C2)c(Cl)c1)c1snc(-c2cccc3ncsc23)c1C1CC1` [I-117] yielded an IC50 not above 400 nM.

With `O=C(Nc1cnc(-n2nccn2)c(Cl)c1)c1snc(-c2cccc3ncccc23)c1C1CC1` [I-118], the IC50 is not above 400 nM.

As for `O=C(Nc1cncc(C(F)(F)F)c1)c1snc(-c2cccc3ncccc23)c1C1CC1` [I-119], the IC50 was not above 400 nM.

In turn, `Cn1nnc2cccc(-c3nsc(C(=O)Nc4cnc(-n5nccn5)c(C#N)c4)c3C3CC3)c21` [I-120] gave an IC50 not above 400 nM.

`CC(=O)N1CCC(c2nsc(C(=O)Nc3cnc(-n4nccn4)c(C#N)c3)c2C2CC2)CC1` [I-121] yielded an IC50 of 1000 to 2500 nM.

Compound `CN1CCC(c2nsc(C(=O)Nc3cnc(-n4nccn4)c(C#N)c3)c2C2CC2)CC1` [I-122] yielded an IC50 of more than 2500 nM.

In turn, `N#Cc1cc(NC(=O)c2snc(-c3cccc4ncccc34)c2C2CC2)cnc1-n1nccn1` [I-123] came in with an IC50 not above 400 nM.

Regarding `CC(C)c1nsc(C(=O)Nc2ccnc(C(F)(F)F)c2)c1C1CC1` [I-124], the half-maximal inhibitory concentration (IC50) lay in the range of 1000 to 2500 nM.

The compound `CN(C)c1nsc(C(=O)Nc2ccnc(C(F)(F)F)c2)c1C1CC1` [I-125] had an IC50 of more than 2500 nM.

Take `Cn1nc2cccc(-c3nsc(C(=O)Nc4cnc(-n5nccn5)c(C#N)c4)c3C3CC3)c2n1` [I-126]: the IC50 is not above 400 nM.

Turning to `Cn1nnc2c(-c3nsc(C(=O)Nc4cnc(-n5nccn5)c(C#N)c4)c3C3CC3)cccc21` [I-127], the IC50 was not above 400 nM.

Compound `Cn1ccc(-c2nsc(C(=O)Nc3cnc(-n4nccn4)c(C#N)c3)c2C(F)(F)F)cc1=O` [I-128, N-(5-cyano-6-(2H-1,2,3-triazol-2-yl)pyridin-3-yl)-3-(1-methyl-2-oxo-1,2-dihydropyridin-4-yl)-4-(trifluoromethyl)isothiazole-5-carboxamide] had an IC50 of more than 2500 nM.

On to `CC(=O)N1CC(c2nsc(C(=O)Nc3cnc(-n4nccn4)c(C#N)c3)c2C(F)(F)F)C1` [I-129, 3-(1-acetylazetidin-3-yl)-N-[5-cyano-6-(1,2,3-triazol-2-yl)pyridin-3-yl]-4-(trifluoromethyl)-1,2-thiazole-5-carboxamide], for which the IC50 is more than 2500 nM.

The compound `CN1CC(c2nsc(C(=O)Nc3cnc(-n4nccn4)c(C#N)c3)c2C(F)(F)F)C1` [I-130, N-[5-cyano-6-(1,2,3-triazol-2-yl)pyridin-3-yl]-3-(1-methylazetidin-3-yl)-4-(trifluoromethyl)-1,2-thiazole-5-carboxamide] registered an IC50 of more than 2500 nM.

Consider `N#Cc1cc(NC(=O)c2snc(-c3cccc4nccn34)c2C2CC2)cnc1-n1nccn1` [I-131, N-(5-cyano-6-(2H-1,2,3-triazol-2-yl)pyridin-3-yl)-4-cyclopropyl-3-(imidazo[1,2-a]pyridin-5-yl)isothiazole-5-carboxamide], for which the IC50 is not above 400 nM.

`O=C(Nc1ccnc(C(F)(F)F)c1)c1snc(-c2cccc3nccn23)c1C1CC1` [I-132, 4-cyclopropyl-3-(imidazo[1,2-a]pyridin-5-yl)-N-(2-(trifluoromethyl)pyridin-4-yl)isothiazole-5-carboxamide] came in with an IC50 not above 400 nM.

`O=C(Nc1ccc(C(=O)N2CC(O)C2)c(Cl)c1)c1snc(-c2cccc3ncccc23)c1C1CC1` [I-133, N-(3-chloro-4-(3-hydroxyazetidine-1-carbonyl)phenyl)-4-cyclopropyl-3-(quinolin-5-yl)isothiazole-5-carboxamide]: the IC50 is not above 400 nM.

`CN1CC=C(c2nsc(C(=O)Nc3cnc(-n4nccn4)c(C#N)c3)c2C2CC2)CC1` [I-134, N-(5-cyano-6-(2H-1,2,3-triazol-2-yl)pyridin-3-yl)-4-cyclopropyl-3-(1-methyl-1,2,3,6-tetrahydropyridin-4-yl)isothiazole-5-carboxamide] displayed an IC50 of more than 2500 nM.

In turn, `O=C(Nc1ccnc(C(F)(F)F)c1)c1snc(-c2ccccc2Cl)c1C1CC1` [I-135, 3-(2-chlorophenyl)-4-cyclopropyl-N-[2-(trifluoromethyl)pyridin-4-yl]-1,2-thiazole-5-carboxamide] had an IC50 not above 400 nM.

`O=C(Nc1ccnc(C(F)(F)F)c1)c1snc(-c2ccc(Cl)cc2)c1C1CC1` [I-136, 3-(4-chlorophenyl)-4-cyclopropyl-N-[2-(trifluoromethyl)pyridin-4-yl]-1,2-thiazole-5-carboxamide] gave an IC50 not above 400 nM.

As for `O=C(Nc1ccnc(C(F)(F)F)c1)c1snc(-c2ccc(C(F)(F)F)cc2)c1C1CC1` [I-137, 4-cyclopropyl-3-[4-(trifluoromethyl)phenyl]-N-[2-(trifluoromethyl)pyridin-4-yl]-1,2-thiazole-5-carboxamide], the IC50 lay in the range of 400 to 1000 nM.

On to `O=C(Nc1ccnc(C(F)(F)F)c1)c1snc(-c2cccc(C(F)(F)F)c2)c1C1CC1` [I-138, 4-cyclopropyl-3-(3-(trifluoromethyl)phenyl)-N-(2-(trifluoromethyl)pyridin-4-yl)isothiazole-5-carboxamide], for which the IC50 was not above 400 nM.

As to `O=C(Nc1ccnc(C(F)(F)F)c1)c1snc(-c2cccc(Cl)c2)c1C1CC1` [I-139, 3-(3-chlorophenyl)-4-cyclopropyl-N-(2-(trifluoromethyl)pyridin-4-yl)isothiazole-5-carboxamide], the IC50 was not above 400 nM.

The compound `Cc1ccc(-c2nsc(C(=O)Nc3ccnc(C(F)(F)F)c3)c2C2CC2)c2cccnc12` [I-140, 4-cyclopropyl-3-(8-methylquinolin-5-yl)-N-[2-(trifluoromethyl)pyridin-4-yl]-1,2-thiazole-5-carboxamide] returned an IC50 not above 400 nM.

Compound `CC(=O)Nc1cccc(-c2nsc(C(=O)Nc3ccnc(C(F)(F)F)c3)c2C2CC2)c1` [I-141, 4-cyclopropyl-3-(3-acetamidophenyl)-N-[2-(trifluoromethyl)pyridin-4-yl]-1,2-thiazole-5-carboxamide] came in with an IC50 of 400 to 1000 nM.

Consider `O=C(Nc1ccnc(C(F)(F)F)c1)c1snc(-c2ccc3scnc3c2)c1C1CC1` [I-142, 3-(1,3-benzothiazol-5-yl)-4-cyclopropyl-N-[2-(trifluoromethyl)pyridin-4-yl]-1,2-thiazole-5-carboxamide], for which the IC50 is not above 400 nM.

`Cc1nn(C)cc1-c1nsc(C(=O)Nc2ccnc(C(F)(F)F)c2)c1C1CC1` [I-143, 4-cyclopropyl-3-(1,3-dimethyl-1H-pyrazol-4-yl)-N-(2-(trifluoromethyl)pyridin-4-yl)isothiazole-5-carboxamide] displayed an IC50 not above 400 nM.

Compound `O=C(Nc1ccnc(C(F)(F)F)c1)c1snc(-c2cncnc2)c1C1CC1` [I-144, 4-cyclopropyl-3-(pyrimidin-5-yl)-N-[2-(trifluoromethyl)pyridin-4-yl]-1,2-thiazole-5-carboxamide] registered an IC50 not above 400 nM.

Take `CN(C)c1ccc(-c2nsc(C(=O)Nc3ccnc(C(F)(F)F)c3)c2C2CC2)cc1` [I-145, 4-cyclopropyl-3-[4-(dimethylamino)phenyl]-N-[2-(trifluoromethyl)pyridine-4-yl]-1,2-thiazole-5-carboxamide]: the IC50 was more than 2500 nM.

Compound `O=C(Nc1ccnc(C(F)(F)F)c1)c1snc(-c2cncc(F)c2)c1C1CC1` [I-146, 4-cyclopropyl-3-(5-fluoropyridin-3-yl)-N-[2-(trifluoromethyl)pyridine-4-yl]-1,2-thiazole-5-carboxamide] displayed an IC50 not above 400 nM.

With `O=C(Nc1ccnc(C(F)(F)F)c1)c1snc(-c2ccccc2F)c1C1CC1` [I-147, 4-cyclopropyl-3-(2-fluorophenyl)-N-[2-(trifluoromethyl)pyridine-4-yl]-1,2-thiazole-5-carboxamide], the IC50 was not above 400 nM.

Regarding `CC(=O)Nc1ccc(-c2nsc(C(=O)Nc3ccnc(C(F)(F)F)c3)c2C2CC2)cc1` [I-148, 3-(4-acetamidophenyl)-4-cyclopropyl-N-(2-(trifluoromethyl)pyridin-4-yl)isothiazole-5-carboxamide], the IC50 fell in the range of 400 to 1000 nM.

`Cn1ccc(-c2nsc(C(=O)Nc3ccnc(C(F)(F)F)c3)c2C2CC2)n1` [I-150, 4-cyclopropyl-3-(1-methyl-1H-pyrazol-3-yl)-N-(2-(trifluoromethyl)pyridin-4-yl)isothiazole-5-carboxamide] had an IC50 of 1000 to 2500 nM.

The compound `O=C(Nc1ccnc(C(F)(F)F)c1)c1snc(-c2ccn3ncnc3c2)c1C1CC1` [I-151, 3-([1,2,4]triazolo[1,5-a]pyridin-7-yl)-4-cyclopropyl-N-(2-(trifluoromethyl)pyridin-4-yl)isothiazole-5-carboxamide] returned an IC50 of 400 to 1000 nM.

In turn, `Cn1ncc2c(-c3nsc(C(=O)Nc4ccnc(C(F)(F)F)c4)c3C3CC3)cccc21` [I-152, 4-cyclopropyl-3-(1-methyl-1H-indazol-4-yl)-N-(2-(trifluoromethyl)pyridin-4-yl)isothiazole-5-carboxamide] gave an IC50 not above 400 nM.

Broadly, the IC50 is the concentration that gives 50% inhibition. A higher IC50 goes with weaker potency in that assay.
